From patent US10407488B2, “Therapy for treatment or prevention of conditions associated with bleeding or hypocoagulation” (THE REGENTS OF THE UNIVERSITY OF CALIFORNIA, priority 2013, dated 2019)

Legend:
[1] = system: thrombin generation in plasma of patients with congenital FVIII-deficiency and inhibitors; assay: Thrombin generation in plasma of patients with congenital FVIII-deficiency and high titer inhibitors, spiked in vitro; format: biochemical, human; conditions: factor alone; five patient samples, BU-titer 41-280
Excerpt: Normal pooled human plasma and plasma from human FVIII-deficient patients with and without inhibitors (titer specified in Bethesda Units (BU)) was purchased from George King Bio-Medical (Overland Park, Kans., USA). In addition, plasma and clinical information was obtained from two patients with severe FVIII-deficiency (<1% intrinsic FVIII-activity levels) and inhibitors (titers determined in BU by the clinical laboratory using the Nijmegen assay (17) regularly visiting the Hemophilia Treatment Center at the University of California, San Diego (UCSD) after informed consent was obtained. Patient confidentiality safeguards, sample and data acquisition methods were approved by the UCSD Institutional Review Board. Blood was drawn into 3.8% sodium citrate (pH 5.5) at a 9:1 blood/anticoagulant volume ratio, and processed immediately. […]
Endogenous thrombin potential (ETP) assays were performed as described (19). […] In some experiments, 1.25 μg/ml anti-FVIII antibody was added to the plasma and ETP was determined after 1 hour of preincubation. Fluorescence was measured at excitation/emission wavelengths of […] using Gemini EM fluorescent plate reader (Molecular Devices). Fluorescence time course data were converted to nM thrombin as described (20). ETP, defined as the area under the curve (AUC) and the peak height were determined using Origin or GraphPad Prism software.

[2] = system: thrombin generation in normal human plasma with rhAPC; assay: Thrombin generation in normal human plasma in the presence of rhAPC; format: biochemical
Experimental: BU titer values for FVIII antibodies added to FVIII-deficient plasma were determined using a modified Nijmegen Bethesda assay (Barrow and Lollar; JTH 2006, 4:2223-2229). Briefly, antibody was serially diluted in HBS with 0.05% Tween 80 and mixed 1:1 with pooled normal plasma that was supplemented with 100 mM Imidazole, pH 7.0. Samples were incubated at 37° C. for 2 hours then assayed by aPTT with APTT XL reagent (Pacific Hemostasis). A standard curve was derived from a serial dilution of normal plasma into FVIII deficient plasma that was also mixed 1:1 with HBST and incubated at 37° C. for 2 hours. Percent FVIII activity was plotted versus mg/ml of antibody and residual activity of 50% was defined as 1 BU/ml. In addition, endogenous thrombin potential (ETP) assays were performed as described (3). Briefly FVa mutants or saline were added to human or murine plasma (George King Bio-Medical; mouse source, 50% v/v) supplemented with […] corn trypsin inhibitor (Haematologic Technologies), 10 mM CaCl2, 10 μM phospholipid vesicles (80% phosphatidylcholine, 20% phosphatidylserine, prepared as described (6), 0.2 pM soluble tissue factor (Innovin®, Dade Behring), and 0.4 mM Z-Gly-Gly-Arg-AMC (thrombin substrate, Bachem) in HBS. After mixing, 100 μL was transferred to a FluoroNunc microtiter plate at 37° C. to monitor fluorescence (excitation at 360 nm/emission at 460 nm; Gemini EM fluorescent plate reader (Molecular Devices)). Fluorescence time course data were converted to nM thrombin as described (7). ETP, defined as the area under the curve, was determined using Prism 5.04 (Graphpad).
APC-mediated inactivation of FVa was analyzed in ETP assays and aPTT clotting assays. FVa mutants were incubated with equal volumes of either recombinant human APC (Xigris®) or buffer in human and murine Balb/c plasma.

Q: What does the source list for “^superFVa: engineered APC-resistant FVa variant (SEQ ID NO:4): R306Q, R506Q, R679Q, Cys609-Cys1691 disulfide, S2183A, B-domain deleted”?
A: effect on ETP and peak height [1]: increased ETP and peak height in all five patient samples; rescue of APC-induced reduction of thrombin generation ([2]; factor alone, rhAPC, normal human plasma (FIG. 16)): corrected thrombin generation to levels to those of normal human plasma; ETP restored ([2]; human plasma, ETP maximally suppressed by APC): 90-100%; effect on thrombin generation suppressed by APC ([2]; human plasma, concentrations where ^superFVa restores): fully restored thrombin generation
